Source: patent publication US7074595B2, “General means of labeling protein by using wheat embryo cell-free protein synthesis system” (CellFree Sciences Co., Ltd., priority 2000, dated 2006)

Experiments:
Type in all cases: biochemical
Details in all cases: NADPH
[1] = biological target: T1, dihydrofolate reductase (DHFR), Natural-Type DHFR (Escherichia coli, UniProt P0ABQ4); assay: enzymatic properties of DHFR (Table 2): Michaelis constant and maximum velocity, Natural-Type DHFR
T1 construct: made in house; host or cells: wheat embryo extract cell-free protein synthesis (dialysis type)
T1 sequence (P0ABQ4 1-159): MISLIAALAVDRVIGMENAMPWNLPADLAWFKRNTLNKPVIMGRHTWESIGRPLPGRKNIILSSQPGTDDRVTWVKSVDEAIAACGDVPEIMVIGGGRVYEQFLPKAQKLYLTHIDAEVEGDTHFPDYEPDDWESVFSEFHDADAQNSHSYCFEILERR
Method: (§1) Purification of GFP and measurement of its activity by analysis of fluorescence spectrum using a fluorospectrophotometer were carried out in accordance with a method by Deschamps, et al. [Deschamps, J. R. et al., (1995) Protein Expression and Purification, 6, 555–558]. In the measurement of fluorescence spectrum, a fluorophotometer of type RF-5000 by Shimadzu was used. DHFR activity was measured by a method of Stanley, et al. [Methods. Enzymol. 18, 195–199 (1971)].
Then enzymatic properties of the purified heavy hydrogen-labeled DHFR were biochemically investigated by the same manner as in Example 1. As will be apparent from Table 2, both Vmax and Michaelis constant (Km) to NADPH which are parameters for enzymatic chemical property of natural-type DHFR and heavy hydrogen-labeled DHFR show no difference between both enzymes. Thus, it became clear that DHFR comprising heavy hydrogen-labeled amino acids maintained nearly the same enzymatic activity as the natural-type DHFR.

[2] = biological target: T2, dihydrofolate reductase (DHFR), Heavy Hydrogen-Labeled DHFR (20 kinds of heavy hydrogen-labeled L-amino acids) (Escherichia coli, UniProt P0ABQ4); assay: enzymatic properties of DHFR (Table 2): Michaelis constant and maximum velocity, Heavy Hydrogen-Labeled DHFR
T2 construct: made in house; host or cells: wheat embryo extract cell-free protein synthesis (dialysis type)
T2 sequence (P0ABQ4 1-159): T1 sequence (P0ABQ4 1-159)
Method: as §1
With regard to the wheat embryo, that being contaminated with substantially no endosperm component prepared by the method mentioned in Example 1 was used. Preparation of an extract from wheat embryo was carried out by the exactly same method as Example 1 except that the solution for extraction and the solution used for gel filtration contained 20 kinds of heavy hydrogen-labeled L-amino acids instead of 20 kinds of selenomethionine-containing L-amino acids. Concentration of the prepared extract was adjusted to 170˜250 A260 nm (A260/A280=1.5).
Although the composition of the protein synthesis reaction solution is as same as that described in Example 1, it contains 20 kinds of heavy hydrogen-labeled L-amino acids instead of 20 kinds of selenomethionine-containing L-amino acids.
Then enzymatic properties of the purified heavy hydrogen-labeled DHFR were biochemically investigated by the same manner as in Example 1. […]

[3] = biological target: T3, dihydrofolate reductase (DHFR), selenomethionine-containing (SeMet-DHFR) (Escherichia coli, UniProt P0ABQ4); assay: enzymatic properties of DHFR (Table 1): Michaelis constant and maximum velocity, SeMet-DHFR
T3 construct: made in house; host or cells: wheat embryo extract cell-free protein synthesis (dialysis type)
T3 sequence (P0ABQ4 1-159): T1 sequence (P0ABQ4 1-159)
Method: as §1
(§2) Then enzymatic properties of the selenomethionine-containing proteins purified as such were investigated biochemically. Fluorescence emission spectrum of a certain concentration of the purified GFP preparation shown in FIG. 2 excited at the wavelength of 395 nm was measured within a range of 410 nm to 600 nm and the result is shown in FIG. 3. As will be apparent from FIG. 3, there is no difference between the fluorescence emission spectra of GFP [(A) in FIG. 3] and selenomethionine GFP [(B) in FIG. 3]. Thus, the conclusion is that the change in GFP activity by substituting methionine residue with selenomethionine is not higher than the usual measurement sensitivity. […]

[4] = biological target: T4, dihydrofolate reductase (DHFR), natural-type methionine-containing (Met-DHFR) (Escherichia coli, UniProt P0ABQ4); assay: enzymatic properties of DHFR (Table 1): Michaelis constant and maximum velocity, Met-DHFR
T4 construct: made in house; host or cells: wheat embryo extract cell-free protein synthesis (dialysis type)
T4 sequence (P0ABQ4 1-159): T1 sequence (P0ABQ4 1-159)
Method: as §1, §2

For `NC(=O)C1=CN([C@@H]2O[C@H](COP(=O)(O)OP(=O)(O)OC[C@H]3O[C@@H](n4cnc5c(N)ncnc54)[C@H](OP(=O)(O)O)[C@@H]3O)[C@@H](O)[C@H]2O)C=CC1` [NADPH, nicotinamide adenine dinucleotide phosphate (NADPH) of a reduced type], the Vmax [1] was 0.127 A560 nm/μg/min, the Vmax [2] was 0.261 A560 nm/μg/min and the “maximum velocity Vmax” value [3] was 0.137 A560 nm/μg/min. For the same molecule, the “maximum velocity Vmax” value [4] was 0.143 A560 nm/μg/min.
